Literature values, collected in patent US20030036641A1, “Methods for homology-driven reassembly of nucleic acid sequences” (priority 2001, published 2003).

Tested on: E. coli TG1
Settings: E. coli TG1 containing pGJ103 (pI258 ars operon in pUC19), LB ampicillin agar plates

## sodium arsenate
  MIC (minimum inhibitory concentration): 4 µg/mL
